Assay [1] concerns HCT116 cells. Kind of assay: Q-FISH scoring of chromosome arms with no telomeric signal. Format: cell-based, human. To be noted: HCT116, one or two days, 2 or 5 µM. The protocol: Presence of extrachromosomal circular telomeric DNA indicates rapid telomere shortening via excision of telomeric circles. To validate this prediction, we scored chromosome arms with no telomeric signal on metaphase chromosomes from iKU-1 treated cells by quantitative fluorescence in situ hybridization (Q-FISH). HCT116 cells were incubated for one or two days in McCoy's 5a medium with 10% Fetal Bovine Serum, 2 mM L-Glutamine and Penicilin/Streptomycin 200 U/l each and supplemented with iKU-1 (2 or 5 µM). Treated cells were incubated with colcemid (0.05 µg/ml) for 3 hours to increase a number of cells in metaphase. Cells were harvested and fixed in methanol and glacial acetic acid (3:1 v/v). Chromosome spreads on slides were hybridized with telomeric peptide nucleid acid probe TelC-Cy3 (Panagene, F1002) in 70% formamide, 0.5% blocking reagent (Roche) and 20 mM TRIS-Cl pH 7.4 according manufacturer's instruction. After washing, slides were counterstained with DAPI and mounted in […]® Antifade Mounting Medium with DAPI (Vector Laboratories; H-1200-10). Fluorescence microscope with oil immersed 100× objective was used to detect telomeric signal at chromosome ends.

The target of assay [2] is Ku complex (Homo sapiens, UniProt P12956+P13010). Kind of assay: electrophoretic mobility shift assay (EMSA) of Ku binding to double stranded DNA. To be noted: 98 bp DNA probe, compared with STL127705 (Figure 1). The text has this: We also compared iKU-1 (Compound 1) and the published Ku inhibitor STL127705 (Weterings, E., Gallegos, A.C., Dominick, L.N., Cooke, L.S., Bartels, T.N., Vagner, J., Matsunaga, T.O., and Mahadevan, D. (2016). A novel small molecule inhibitor of the DNA repair protein Ku70/80. DNA Repair (Amst) 43, 98-106) in their efficiency to inhibit binding of Ki to double stranded DNA by electrophoretic mobility shift assay (Figure 1). A 98 bp long oligonucleotide that can bind up to four Ku complexes was used as a probe.
Chain of Ku complex (P12956 whole entry): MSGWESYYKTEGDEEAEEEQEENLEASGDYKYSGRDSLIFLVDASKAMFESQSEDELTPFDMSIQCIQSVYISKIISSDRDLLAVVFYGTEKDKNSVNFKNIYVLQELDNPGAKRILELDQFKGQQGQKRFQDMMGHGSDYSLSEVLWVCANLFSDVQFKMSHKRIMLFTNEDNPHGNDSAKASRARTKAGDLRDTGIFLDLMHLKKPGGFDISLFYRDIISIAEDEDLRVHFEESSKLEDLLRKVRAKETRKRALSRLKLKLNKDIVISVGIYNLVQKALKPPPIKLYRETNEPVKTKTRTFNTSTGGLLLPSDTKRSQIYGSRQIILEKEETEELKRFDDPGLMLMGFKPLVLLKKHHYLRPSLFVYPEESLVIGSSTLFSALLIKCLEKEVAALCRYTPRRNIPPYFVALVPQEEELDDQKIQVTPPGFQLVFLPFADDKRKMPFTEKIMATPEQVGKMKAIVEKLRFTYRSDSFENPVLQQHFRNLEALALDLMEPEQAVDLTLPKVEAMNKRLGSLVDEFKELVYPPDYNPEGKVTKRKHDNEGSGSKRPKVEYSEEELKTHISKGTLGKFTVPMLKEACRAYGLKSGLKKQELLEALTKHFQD
Chain of Ku complex (P13010 whole entry): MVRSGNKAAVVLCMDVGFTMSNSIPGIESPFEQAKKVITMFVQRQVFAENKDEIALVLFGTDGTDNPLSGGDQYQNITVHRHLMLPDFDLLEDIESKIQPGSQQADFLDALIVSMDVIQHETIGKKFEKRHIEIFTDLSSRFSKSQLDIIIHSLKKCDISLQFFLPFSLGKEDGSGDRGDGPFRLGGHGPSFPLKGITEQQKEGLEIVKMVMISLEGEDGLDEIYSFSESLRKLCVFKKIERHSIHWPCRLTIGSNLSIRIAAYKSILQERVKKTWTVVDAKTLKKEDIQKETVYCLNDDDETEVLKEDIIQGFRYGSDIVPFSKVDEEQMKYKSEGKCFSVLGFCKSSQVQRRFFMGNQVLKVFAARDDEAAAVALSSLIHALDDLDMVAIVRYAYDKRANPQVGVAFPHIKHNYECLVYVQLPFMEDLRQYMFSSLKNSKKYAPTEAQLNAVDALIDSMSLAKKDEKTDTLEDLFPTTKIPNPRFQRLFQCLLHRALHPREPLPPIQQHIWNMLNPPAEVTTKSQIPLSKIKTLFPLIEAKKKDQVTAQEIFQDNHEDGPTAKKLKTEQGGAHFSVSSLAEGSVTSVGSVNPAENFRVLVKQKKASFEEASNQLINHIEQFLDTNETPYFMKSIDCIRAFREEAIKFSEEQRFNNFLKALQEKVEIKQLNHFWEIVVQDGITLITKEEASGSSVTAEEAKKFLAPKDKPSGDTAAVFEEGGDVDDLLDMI
DNA (0.6 nM) in 10 µl EMSA buffer (35 mM Tris-Cl pH 7.9, 150 mM KCl, 1 mM EDTA, 0.1 mM Dithiothreitol, 5% Glycerol) was mixed with 10 µl of human Ku complex (100 nM in EMSA buffer) preincubated with the inhibitors for 5 min at room temperature, and incubated for additional 10 min. DNA associated with Ku complexes was seprated by native polyacrylamide gel electrophoresis (5% polyacrylamide 29:1 [Sigma-Aldrich], 0.5 TBE) at 160 V for 4 hrs. Gels were dried in gel dryer on 3MM paper, exposed to phospho-screen (GE Healthcare) and the autoradiograms were generated by scanning with Typhoon (GE Healthcare).

The test system of assay [3] is A2780. Kind of assay: growth of A2780 cells by ATPlite, alone and in combination with Bleomycin. Format: cell-based, human. The protocol: 2,000 A2780 cells were seeded in 100 µl of RPMI 1640 medium with 300 mg/l L-Glutamine and 10% Fetal Bovine Serum for 1 day in 96well plate and treated by 0.025 µg/ml of Bleomycin, 0.5 µM of iKu-1 or their combination for 7 days. Number of viable cells was measured by ATPlite kit (Perkin Elmer) and normalized to the treatment with 0.5% DMSO.
Values in the table indicate relative growth assessed by ATPlite kit compared to the control sample treated with 0.5% DMSO after 7 days of treatment.
(§1) 2,000 SKOV3 and A2780 cells were seeded in 100 µl of McCoy's 5a or RPMI 1640 media, respectively, for one day and then incubated with iKU-1 for 7 days. Number of viable cells was measured by ATPlite kit (Perkin Elmer) and normalized to the treatment with 0.5% DMSO.

Assay [4] concerns HCT116 cells. Kind of assay: Telomere Shortest Length Assay. To be noted: HCT116 treated for two days, compared with untreated control. The format is cell-based, human. On the procedure:
iKU-1 induces rapid shortening of telomeres (Figure 6). HCT116 cells were treated for two days with iKU-1 and telomere size was measured by Telomere Shortest Length Assay as described in Lai, T.P., Zhang, N., Noh, J., Mender, I., Tedone, E., Huang, E., Wright, W.E., Danuser, G., and Shay, J.W. (2017). A method for measuring the distribution of the shortest telomeres in cells and tissues. Nat Commun 8, 1356, whereby individual telomeres are PCR-amplified, separated by agarose gel electrophoresis and detected by Southern hybridization with P^32-labeled telomeric DNA oligonucleotide (5'-[…]-3' (SEQ ID NO: 6)).

Assay [5] deals with DNA-PKcs. Kind of assay: DNA-PKcs autophosphorylation (S2056) after bleomycin, Western blotting in HCT116 cells. The format is cell-based, human. To be noted: HCT116, pre-incubated 1 hr. The protocol: iKU-1 blocks activation of DNA-PKcs upon induction of DNA damage in vivo (Figure 2). HCT116 cells were pre-incubated with iKU-1 for 1 hr in McCoy's 5a medium supplemented with 10% Fetal Bovine Serum, 2 mM L-Glutamine, Penicilin/Streptomycin 200 U/l each. DNA breaks were induced by addition of bleomycin and incubated for additional 4 hrs. DNA damage triggers DNA-PKcs activity that leads to its autophosphorylation at the residue 2056. The phosphorylated DNA-PKcs was detected by Western blotting using anti-pDNA PKcs (phospho S2056) antibody [EPR5670] (Abcam, ab124918) and the total amount of DNA-PKcs with the anti-DNA PKcs antibody (BioRad, AHP318), both in 1:10000 dilution in TBS-T buffer overnight at 4°C. The primary antibody was detected by immunostaining with IRDye 800CW-conjugated Goat anti-Rabbit IgG secondary antibody (dilution 1:20000 in TBS-T). The signal was imaged using Odyssey Imager (Li-Cor). […] The total level of DNA-PKcs was not altered by the treatment.

Assay [6] relates to HCT116 cells. The assay is described as follows: flow cytometry analysis of DNA content (cell cycle). Format: cell-based, human. To be noted: HCT116 incubated for two days. On the procedure:
HCT116 cells were incubated for two days in McCoy's 5a medium supplemented with 10% Fetal Bovine Serum, 2 mM L-Glutamine and Penicilin/Streptomycin 200 U/l each in the presence of iKU-1, harvested and fixed in cold 70% ethanol. Cells were recovered in PBS solution and resuspended in 200 µl of Vindel solution containing propidium iodide and RNAse A, and nuclear DNA content was measured by flow cytometry (Beckton Dickinson FACS Verse). Accumulation of cells in S-phase is apparent already after two days of the iKU-1 treatment.

For assay [7], the system named is SKOV3. The assay is described as follows: growth of SKOV3 cells by ATPlite. Format: cell-based. To be noted: 7 days. The protocol:
as §1

For assay [8], the system named is U2OS. Kind of assay: combination with BIBR1532, relative growth by ATPlite. Format: cell-based, human. To be noted: 10 µM BIBR1532, 0.25 µM iKU-1 or their combination, 4 days.
For assay [9], the system named is HeLa. The assay is described as above. To be noted: 10 µM BIBR1532, 0.25 µM iKU-1 or their combination, 4 days. Format: cell-based, human.

Consider `O=C(Nc1nc(-c2ccccn2)cs1)c1cncc(Br)c1` [Compound 1], for which the “incidence of telomere-free chromosome ends” value in [1] was “increase incidence of telomere-free chromosome ends”. Moreover, the “efficiency to inhibit binding of Ku to double stranded DNA” value in assay [2] was “more potent inhibitor of Ku-DNA binding than STL127705”. Also, the “interaction with Bleomycin on growth” value in assay [3] (A2780, 0.025 µg/ml Bleomycin with 0.5 µM iKu-1, 7 days) was “synergism”. Also, the growth inhibition result in assay [3] (A2780, 0.5 µM, 7 days) is “do not show growth inhibition”. In addition, the “relative growth assessed by ATPlite kit compared to the control sample treated with 0.5% DMSO” value in [3] (A2780, 0.025 µg/ml Bleomycin, 0.5 µM iKU-1 or their combination, 7 days) is 1.11; in assay [8], 0.81; in assay [9], 1.22. The size of telomeres entry in assay [4] was “relative decrease in the size of telomeres”. Also, the “total level of DNA-PKcs” value in [5] (then bleomycin for 4 hrs) is given as “not altered”. The “phosphorylation of DNA-PKcs (S2056)” value in assay [5] (then bleomycin up to 30 µg/ml for 4 hrs) was “blocked the phosphorylation”. Further, the cell cycle effect result in assay [6] was “cell cycle arrest in S-phase”. In [7] (SKOV3, 0.5 µM), the “sensitivity of cells (growth)” value is reported as “sensitive”. Besides, the “sensitivity of SKOV3 relative to A2780” value in [7] (from growth curves (Figure 9)) came out at 10 times.
